# Test results from patent US11964943B2, “3,5-diarylidenyl-n-substituted-piperid-4-one-derived inhibitors of Stat3 pathway activity and uses thereof” (priority 2017, dated 2024).
# Assays:
# [1] = system: A-10 smooth muscle cells; assay: Microtubule disruption by indirect immunofluorescence; type: cell-based; conditions: 30 μM
# [2] = system: HCT116-oxaliplatin resistant and A2780-cisplatin resistant cells; assay: 2D monolayer cytotoxicity in platinum-resistant cells; type: cell-based; conditions: compared with HO-3867, atovaquone, curcumin and stattic
# Method: MIT assay. Individual drug treatments and combinations were carried out as with the SRB assay. The MTT assay was carried out as previously (see Cytotoxicity studies sections) with the difference that it was completed in 96 h.
# [3] = system: HCT116-oxaliplatin resistant cells; assay: Colony formation assay with oxaliplatin; type: cell-based; conditions: 10 days
# Method: HCT116-oxaliplatin res cells were seeded at 2000 cells/well in 6-well plates and allowed to adhere overnight. The next day, oxaliplatin and IE-8 were added simultaneously. First, the specific amount of cells solution was removed from each well and afterwards the same volume of the appropriate drug dilution was added to achieve the right concentration. IE-8 was diluted in DMA. Cells were also treated with Oxaliplatin and IE-8 alone. The plates were left the incubator and the cells were allowed to grow colonies for 10 days. After 10 days the entire cell solution was removed from each well, which was subsequently washed with 500 μl of PBS. 1 ml of cold 100% methanol was added and the plates were incubated for 30 minutes at 4 C. After a second wash, the cells were stained with 1 ml of […] staining dye for 2-3 minutes, rinsed with water, allowed to dry overnight and the colonies were quantified using a gel imaging system (Fusion Fx7) and its in-built colony counter software.
# [4] = system: HCT116-oxaliplatin resistant xenografts; assay: In vivo survival experiment; set-up: species or system mice
# Method: Six- to eight-week old female Balb/c mice (weighing about 20 g) were purchased from the Harlan Laboratories, San Pietro al Natisone, Italy. The animals were kept in a pathogen-free environment, and every procedure was done in a laminar airflow cabinet. HCT16-oxaliplatin resistant cells (5×10^5) were injected subcutaneously into the right flank of female Balb/c mice. The animals were treated with IE-8 intraperitoneally (30 mg kg-1; solutions freshly prepared in the standard mixture of 1% DMSO, Cremophor, Ethanol and H2O) on days 10, 13 and 17. The animals were controlled for distress development every day. […] Control and treatment group n=4.
# [5] = system: HT1080 fibrosarcoma spheroids; assay: Spheroid invasion assay; type: cell-based; conditions: 3 μM, 90 h observation
# Method: Multicellular spheroids from HT-1080 cells were grown for 4 days in RPMI 1640 medium in 96-well plates (Nunclon Sphera, Thermo Fisher) and their size was measured with an inverted microscope (Olympus CKX41, 4× objective) and Cell^F software. […] Growth factor reduced Matrigel (Becton Dickinson) was thawed on ice and diluted in 4° C. cold medium to a final concentration of 300 μg/mL with or without IE-8. One hundred fifty microliter of these solutions were added to the wells containing spheroids in 50 μL medium. The plate was incubated in a humidified atmosphere with 5% CO2 in air at 37° C. Both untreated and treated spheroids were monitored simultaneously with a JuliBr live cell analyzer (NanoEntek) for 90 h to visualize spheroid invasion, and every hour the relative cross-sectional area of the spheroids was measured.
Molecule,effect on microtubules [1],cytotoxicity relative to other Stat3 inhibitors [2],number of colonies ([3]; 0.1 μM IE-8 + 1 μM oxaliplatin),number of colonies ([3]; 0.1 μM IE-8 + 2 μM oxaliplatin),"body weight loss ([4]; 30 mg/kg intraperitoneally on days 10, 13 and 17)","prolongation of survival versus vehicle ([4]; 30 mg/kg intraperitoneally on days 10, 13 and 17, n=4)",rate of confluence (invasion) of spheroids in matrigel [5]
"3,5-Di(3,4,5-trimethoxybenzylidene)-1-phenylpiperidin-4-one [IE-8]",did not show any effect on the microtubules,more cytotoxic than the other tested inhibitors,,,,,
"COc1cc(/C=C2\CN(c3ccccc3)C/C(=C\c3cc(OC)c(OC)c(OC)c3)C2=O)cc(OC)c1OC [IE-8, 3,5-Di(3,4,5-trimethoxybenzylidene)-1-phenylpiperidin-4-one]",,,about 60,Less than 25,No body weight loss was observed,about 20 days,markedly reduced and also delayed
